# Legend:
# Rac1 = molecular target: T1, Rac1 (Homo sapiens, UniProt P63000); assay: Rac Activation AlphaScreen Assay (Rac1 AS); type: biochemical; conditions: AlphaLisa assay; read-out: IC50 inhibitory concentration versus wild type Rac1
# T1 construct: His (N)
# Procedure: The IC50 values reported in Tables 1-6 were obtained from the Rae Activation AlphaScreen Assay (Rac1 AS) assay described in subsection 2 under the section entitled “In Vitro Assays”. “†” represents an IC50 of greater than 100 uM; “††” represents an IC50 of greater than 10 uM and less than 50 uM; and “†††” represents an IC50 of less than 10 uM. “POC” means percent of control. […] Lower POC values reflect greater inhibition. “NT” means not tested.
# 2. Rac Activation AlphaScreen Assay (Rac1 AS)
# AlphaScreen® assays were performed in 96-well microplates in a final reaction volume of 60 μL. Recombinant His-Rac1, recombinant GST-PBD (PAK Binding Domain), donor and acceptor beads (PerkinElmer), and inhibitors were incubated in exchange buffer (20 mM Tris pH 7.5, 50 mM NaCl, 1 mM MgCl2, 1 mM EDTA, 500 nM GTPyS (guanosine 5′-[Y-thio]triphosphate)) at 37° C. Readings were performed on a Tecan M1000 pro microplate reader after 1 hour. Data was analyzed using the GraphPad Prism software (GraphPad Software, Inc.), and IC50 (dose leading to 50% disruption of complex) was calculated from the dose-response curves.
# Rac = molecular target: T2, Rac (Homo sapiens, UniProt P63000); conditions: relative to NSC23766; cited from earlier work
# T2 construct: host or cells: fibroblasts
# [1] = molecular target: T3, Rac-GEF Vav2 with nucleotide-free Rac1 (G15A) (Homo sapiens, UniProt P63000, G15A); conditions: MDA-MB-435 breast cancer cells; <5 mM; cited from earlier work
# T3 construct: host or cells: MDA-MB-435
# [2] = molecular target: T4, Rac-GEF Tiam-1 with Rac1 (G15A) (Homo sapiens, UniProt P63000, G15A); conditions: MDA-MB-435 cells; similar concentrations (<5 mM); cited from earlier work
# T4 construct: host or cells: MDA-MB-435
# [3] = oral administration in mice; cited from earlier work
# [4] = in vivo, cited from earlier work
# [5] = test system: animal models of estrogen positive and HER2 positive breast cancer, prostate cancer, melanoma and colorectal cancer; conditions: single agent and in combination with standard of care; cited from earlier work
IC50 (Rac1) [µM],Compound,more efficient than NSC23766 as an inhibitor of Rac activity (Rac) [fold],association of the Rac-GEF Vav2 with nucleotide-free Rac1 (G15A) [1],association of the Rac-GEF Tiam-1 with Rac1 (G15A) [2],systemic exposure [3],oral bioavailability ([4]; po),plasma half-life [4],activity against animal models of cancer [5]
~10,CCn1c2ccccc2c2cc(Nc3ccnc(NCCCN4CCOCC4)n3)ccc21 [EHop-016],100,inhibits,does not affect,low systemic exposure,,,
,FC(F)(F)c1ccc2c(SCCCCCCn3cnc(CN4CCOCC4)c3)ccnc2c1 [GYS32661],,,,,not orally bioavailable,relatively short,very good activity

# Reference: patent US20250235453A1, “TRIAZOLOPYRIDAZINE COMPOUNDS USEFUL AS RAC1 INHIBITORS” (Revere Pharmaceuticals, priority 2021, published 2025)
